Assay results from US8962844B2, “1,3,4-oxadiazole and 1,3,4-thiadiazole β-lactamase inhibitors” (priority 2012, dated 2015).
Structures can show the parent of a compound that is named as a salt.

Tests used:
[1] = tested on: bacterial strains that express the class D cephalosporinase OXA-15; assay: Standard BLI potentiation MIC / synergy MIC (sMIC) assays run in the presence of a β-lactam, OXA-15 expressing strains; type: cell-based, E. coli; conditions: BLI in combination with a β-lactam; comparison with Avibactam (comparator compound CCC)
How it was run: (§1)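 Isogenic E. coli DH10B carrying cloned β-lactamase genes on pBR322-derived plasmid (blaTEM-1 promoter, tetracycline 25 μg/mL) tested by CLSI broth microdilution in CAMHB. Test compound and β-lactam each diluted and combined; MIC reported in presence of β-lactam.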

[2] = tested on: bacterial strains that express KPC β-lactamases; assay: Standard BLI potentiation MIC / synergy MIC (sMIC) assays run in the presence of a β-lactam, KPC expressing strains; type: cell-based; conditions: more active for at least one KPC strain and/or better spectrum of activity than Avibactam; BLI in combination with a β-lactam
How it was run: as §1

Compound | activity against bacterial strains that express the class D cephalosporinase OXA-15, compared with Avibactam [1] | activity and/or spectrum of activity against bacterial strains that express KPC β-lactamases, compared with Avibactam [2]
NC(=O)c1nnc([C@@H]2CC[C@@H]3CN2C(=O)N3OS(=O)(=O)O)o1 [Compound 706, (2S,5R)-2-(5-carbamoyl-1,3,4-oxadiazol-2-yl)-7-oxo-1,6-diaza-bicyclo[3.2.1]octan-6-yl hydrogen sulfate] | more active than Avibactam | more active than Avibactam
N=C(N)NCC(O)Cc1nnc([C@@H]2CC[C@@H]3CN2C(=O)N3OS(=O)(=O)O)o1 (stereo partly drawn) [Compound 730, (2S,5R)-2-(5-(3-guanidino-2-hydroxypropyl)-1,3,4-oxadiazol-2-yl)-7-oxo-1,6-diazabicyclo[3.2.1]octan-6-yl hydrogen sulfate] | more active than Avibactam | more active than Avibactam
O=C1N2C[C@@H](CC[C@H]2c2nnc(CCNC3CCNCC3)o2)N1OS(=O)(=O)O [Compound 770, (2S,5R)-7-oxo-2-(5-(2-(piperidin-4-ylamino)ethyl)-1,3,4-oxadiazol-2-yl)-1,6-diazabicyclo[3.2.1]octan-6-yl hydrogen sulfate] | more active than Avibactam | more active than Avibactam
N[C@H]1CN[C@@H](c2nnc([C@@H]3CC[C@@H]4CN3C(=O)N4OS(=O)(=O)O)o2)C1 [Compound 761, (2S,5R)-2-(5-((2R,4R)-4-aminopyrrolidin-2-yl)-1,3,4-oxadiazol-2-yl)-7-oxo-1,6-diazabicyclo[3.2.1]octan-6-yl hydrogen sulfate] | more active than Avibactam | more active than Avibactam
NCc1nnc([C@@H]2CC[C@@H]3CN2C(=O)N3OS(=O)(=O)O)o1 [Compound 702, (2S,5R)-2-(5-(aminomethyl)-1,3,4-oxadiazol-2-yl)-7-oxo-1,6-diazabicyclo[3.2.1]octan-6-yl hydrogen sulfate] | more active than Avibactam | more active than Avibactam
